From PubChem BioAssay (NCI)
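Compound exposure: 48 hours, 5 concentrations, 96-well plates. The concentration for full growth arrest is given as TGI.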

Tests used:
Test in all cases: inhibition of tumour cell growth, NCI panel, 48 h
SK-OV-3 ovarian = system: SK-OV-3 ovarian
SK-MEL-5 melanoma = system: SK-MEL-5 melanoma
SF-539 CNS = system: SF-539 CNS
OVCAR-3 ovarian = system: OVCAR-3 ovarian
SF-295 CNS = system: SF-295 CNS
OVCAR-8 ovarian = system: OVCAR-8 ovarian
T-47D breast = system: T-47D breast
NCI-H23 lung = system: NCI-H23 lung
EKVX NSCLC = system: EKVX NSCLC
SK-MEL-28 melanoma = system: SK-MEL-28 melanoma
MDA-N = system: MDA-N
OVCAR-5 ovarian = system: OVCAR-5 ovarian
UACC-62 melanoma = system: UACC-62 melanoma
MDA-MB-231 breast = system: MDA-MB-231 breast
CCRF-CEM leukemia = system: CCRF-CEM leukemia
M14 melanoma = system: M14 melanoma
HOP-62 NSCLC = system: HOP-62 NSCLC
BT-549 breast = system: BT-549 breast
SNB-19 CNS = system: SNB-19 CNS
HCT-15 colon = system: HCT-15 colon

Structure (SMILES)	TGI (SK-OV-3 ovarian) [µM]	TGI (SK-MEL-5 melanoma) [µM]	TGI (SF-539 CNS) [µM]	TGI (OVCAR-3 ovarian) [µM]	TGI (SF-295 CNS) [µM]	TGI (OVCAR-8 ovarian) [µM]	TGI (T-47D breast) [µM]	TGI (NCI-H23 lung) [µM]	TGI (EKVX NSCLC) [µM]	TGI (SK-MEL-28 melanoma) [µM]	TGI (MDA-N) [µM]	TGI (OVCAR-5 ovarian) [µM]	TGI (UACC-62 melanoma) [µM]	TGI (MDA-MB-231 breast) [µM]	TGI (CCRF-CEM leukemia) [µM]	TGI (M14 melanoma) [µM]	TGI (HOP-62 NSCLC) [µM]	TGI (BT-549 breast) [µM]	TGI (SNB-19 CNS) [µM]	TGI (HCT-15 colon) [µM]
Cn1cc(-c2cnc(-c3cn(C)c4ccccc34)cn2)c2ccccc21	> 100	25.3	10.4	> 42.4	11.7	44.5	> 100	37.6	> 100	> 79.2	3.54	> 100	31.3	> 96.6	3.58	27.7	> 100	> 84.7	> 100	47.4
CSCCC(N)P(C)(=O)O (centres undefined)	> 100	> 100	> 100	> 100	> 100	> 100	> 100	> 100	> 100	> 100	> 100	> 100	> 100	> 100	> 100	> 100	> 100	> 100	> 100	> 100
O=C1C(C(c2ccccc2)N2CCOCC2)=C(O)C(c2ccccc2)N1c1ccccc1 (centres undefined)	> 10	> 10	> 10	> 10	> 10	> 10	> 10	> 10	> 10	> 10	> 10	> 10	> 10	> 10	> 10	> 10	> 10	> 10	> 10	> 10
O=C(CCCN1CCC2(CC1)NC(=O)c1ccccc1O2)c1ccc(F)cc1	> 100	> 100	> 100	> 100	> 100	> 100	> 100	> 100	> 100	> 100	> 100	> 100	> 100	> 100	> 100	> 100	> 100	> 100		> 100
CO/N=C(/C(=O)N(C(=O)/C(=N/OC)c1csc(NC(c2ccccc2)(c2ccccc2)c2ccccc2)n1)n1cnn(CC(=O)OC(C)(C)C)c1=O)c1csc(NC(c2ccccc2)(c2ccccc2)c2ccccc2)n1	> 10	> 10	> 10	> 10	> 10	> 10	> 10	> 10	> 10	> 10	> 10	> 10	> 10	> 10	> 10	> 10	> 10	3.96	> 10	> 10
CC(=O)Nc1sc([N+](=O)[O-])cc1S(=O)(=O)c1ccc(Cl)cc1	15.6	1.95	10.2	16.1	8.07	> 100	12.2	14.1	> 100	> 100	> 100	> 100	22.4	> 29.6	> 100	9.79	3.99	> 24.8	> 100	> 95
O=C(O)C1=C(C(=O)O)N(c2ccncc2)C(c2ccco2)=CC1c1ccccc1[N+](=O)[O-] (centres undefined)	44.1	> 47.4	4.55	23.5	25.5	> 59	20.1	25.8	26.6	> 54.8	20.7	33.8	32.1	30.7	> 23.8	22.5	33.7	30	35.5	4.25
CCCCCC(=O)Nc1nc[nH]c1C(N)=O	> 100	> 100	> 100	> 100	> 100	> 100	> 100	> 100	> 100	> 100	> 100	> 100	> 100	> 100	> 100	> 100	> 100	> 100	> 100	> 100
Cc1nn(C(=O)c2ccc(Cl)cc2)c2c1C(c1cccc([N+](=O)[O-])c1)SC(N)=N2 (centres undefined)	> 10	> 10	> 10	> 10	> 10	> 10	> 10	> 10	> 10	> 10	> 10	> 10	> 10	> 10	> 10	> 10	> 10	> 10	> 10	7.51
CSC1=NC(C(N)=O)C(N)N1C (centres undefined)	> 100	> 100	> 100	> 100	> 100	> 100	> 100	> 100	> 100	> 100	> 100	> 100	> 100	> 100	> 100	> 100	> 100	> 100	> 100	> 100
